Test system: Chilo suppressalis
Test: Rice field trials, control of Chilo suppressalis (Example 1, Trials 1-2, Spain)
Assay type: in vivo
Conditions: applications AB
Protocol: All applications were made with an EC formulation containing 650 g/L of pelargonic acid (e.g., 685 g/L of 95% purity pelargonic acid), an anionic emulsifier and a branched fatty acid ester solvent.
Trials 1˜4 assessing the use of pelargonic acid for controlling Chilo suppressalis in rice were conducted in Spain and Thailand.
Application A was made to the crops at the beginning of infestations; for these trials, Stage BBCH 59; Application B was made 14 days after Application A.
(§1) Trial 1 was conducted in Spain using a water volume of 300 L/ha of water per application unless otherwise indicated. Pest Incidence/Number of Insects (PESINC) and Pest Severity (PESSEV) as a Percent of Untreated Check (% UNCK) as well as Phytotoxicity were assessed at various treatment evaluation intervals.
as §1, with “2” for “1”

[1] = Trial 1, 14 DAB, water volume 150 L/ha
[2] = Trial 1, 14 DAB, water volume 300 L/ha, rate in treatment name
[3] = Trial 1, 27 DAB, water volume 150 L/ha
[4] = Trial 1, 27 DAB, water volume 300 L/ha, rate in treatment name, listed as PA 585 g/ha
[5] = Trial 1, 27 DAB, water volume 300 L/ha, rate in treatment name, listed as PA 975 g/ha
[6] = Trial 1, 27 DAB, water volume 300 L/ha, rate in treatment name, listed as PA 1300 g/ha
[7] = Trial 1, 27 DAB, water volume 300 L/ha, rate in treatment name, listed as PA 2600 g/ha
[8] = Trial 1, 40 DAB, water volume 150 L/ha
[9] = Trial 1, 40 DAB, water volume 300 L/ha, rate in treatment name, listed as PA 585 g/ha
[10] = Trial 1, 40 DAB, water volume 300 L/ha, rate in treatment name, listed as PA 975 g/ha
[11] = Trial 1, 40 DAB, water volume 300 L/ha, rate in treatment name, listed as PA 1300 g/ha
[12] = Trial 1, 40 DAB, water volume 300 L/ha, rate in treatment name, listed as PA 2600 g/ha

CCCCCCCCC(=O)O [PA 650 g/ha, pelargonic acid]
PESINC (Pest Incidence/Number of Insects) % UNCK (% efficacy) [1]: 75 % UNCK | PESSEV (Pest Severity) % UNCK [1]: 75 % UNCK | PESINC (Pest Incidence/Number of Insects) % UNCK (% efficacy) [2]: 75 % UNCK | PESSEV (Pest Severity) % UNCK [2]: 75 % UNCK | PESINC (Pest Incidence/Number of Insects) % UNCK (% efficacy) [3]: 42.08 % UNCK | PESSEV (Pest Severity) % UNCK [3]: 42.08 % UNCK | PESINC (Pest Incidence/Number of Insects) % UNCK (% efficacy) [4]: 30.83 % UNCK | PESSEV (Pest Severity) % UNCK [4]: 30.83 % UNCK | PESINC (Pest Incidence/Number of Insects) % UNCK (% efficacy) [5]: 42.08 % UNCK | PESSEV (Pest Severity) % UNCK [5]: 42.08 % UNCK | PESINC (Pest Incidence/Number of Insects) % UNCK (% efficacy) [6]: 46.25 % UNCK | PESSEV (Pest Severity) % UNCK [6]: 50 % UNCK | PESINC (Pest Incidence/Number of Insects) % UNCK (% efficacy) [7]: 59.58 % UNCK | PESSEV (Pest Severity) % UNCK [7]: 59.58 % UNCK | PESINC (Pest Incidence/Number of Insects) % UNCK (% efficacy) [8]: 43.75 % UNCK | PESSEV (Pest Severity) % UNCK [8]: 43.75 % UNCK | PESINC (Pest Incidence/Number of Insects) % UNCK (% efficacy) [9]: 27.71 % UNCK | PESSEV (Pest Severity) % UNCK [9]: 29.21 % UNCK | PESINC (Pest Incidence/Number of Insects) % UNCK (% efficacy) [10]: 46.88 % UNCK | PESSEV (Pest Severity) % UNCK [10]: 46.88 % UNCK | PESINC (Pest Incidence/Number of Insects) % UNCK (% efficacy) [11]: 47.5 % UNCK | PESSEV (Pest Severity) % UNCK [11]: 47.5 % UNCK | PESINC (Pest Incidence/Number of Insects) % UNCK (% efficacy) [12]: 63.13 % UNCK | PESSEV (Pest Severity) % UNCK [12]: 63.13 % UNCK | PESSEV (Pest Severity) % UNCK (Trial 2, 14 DAB, water volume 150 L/ha): 100 % UNCK | PESSEV (Pest Severity) % UNCK (Trial 2, 14 DAB, water volume 300 L/ha, rate in treatment name): 100 % UNCK | PESINC (Pest Incidence/Number of Insects) % UNCK (Trial 2, 15 DAB, water volume 150 L/ha): 100 % UNCK | PESINC (Pest Incidence/Number of Insects) % UNCK (Trial 2, 15 DAB, water volume 300 L/ha, rate in treatment name): 100 % UNCK | PESSEV (Pest Severity) % UNCK (Trial 2, 27 DAB, water volume 150 L/ha): 45.31 % UNCK | PESSEV (Pest Severity) % UNCK (Trial 2, 27 DAB, water volume 300 L/ha, rate in treatment name, listed as PA 585 g/ha): 55.21 % UNCK | PESSEV (Pest Severity) % UNCK (Trial 2, 27 DAB, water volume 300 L/ha, rate in treatment name, listed as PA 975 g/ha): 57.29 % UNCK | PESSEV (Pest Severity) % UNCK (Trial 2, 27 DAB, water volume 300 L/ha, rate in treatment name, listed as PA 1300 g/ha): 69.27 % UNCK | PESSEV (Pest Severity) % UNCK (Trial 2, 27 DAB, water volume 300 L/ha, rate in treatment name, listed as PA 2600 g/ha): 77.6 % UNCK | PESINC (Pest Incidence/Number of Insects) % UNCK (Trial 2, 28 DAB, water volume 150 L/ha): 40 % UNCK | PESINC (Pest Incidence/Number of Insects) % UNCK (Trial 2, 28 DAB, water volume 300 L/ha, rate in treatment name, listed as PA 585 g/ha): 45 % UNCK | PESINC (Pest Incidence/Number of Insects) % UNCK (Trial 2, 28 DAB, water volume 300 L/ha, rate in treatment name, listed as PA 975 g/ha): 45 % UNCK | PESINC (Pest Incidence/Number of Insects) % UNCK (Trial 2, 28 DAB, water volume 300 L/ha, rate in treatment name, listed as PA 1300 g/ha): 57.5 % UNCK | PESINC (Pest Incidence/Number of Insects) % UNCK (Trial 2, 28 DAB, water volume 300 L/ha, rate in treatment name, listed as PA 2600 g/ha): 74.17 % UNCK | PESSEV (Pest Severity) % UNCK (Trial 2, 40 DAB, water volume 150 L/ha): 57.29 % UNCK | PESSEV (Pest Severity) % UNCK (Trial 2, 40 DAB, water volume 300 L/ha, rate in treatment name, listed as PA 585 g/ha): 62.5 % UNCK | PESSEV (Pest Severity) % UNCK (Trial 2, 40 DAB, water volume 300 L/ha, rate in treatment name, listed as PA 975 g/ha): 68.75 % UNCK | PESSEV (Pest Severity) % UNCK (Trial 2, 40 DAB, water volume 300 L/ha, rate in treatment name, listed as PA 1300 g/ha): 68.75 % UNCK | PESSEV (Pest Severity) % UNCK (Trial 2, 40 DAB, water volume 300 L/ha, rate in treatment name, listed as PA 2600 g/ha): 79.38 % UNCK | PESINC (Pest Incidence/Number of Insects) % UNCK (Trial 2, 41 DAB, water volume 150 L/ha): 39.29 % UNCK | PESINC (Pest Incidence/Number of Insects) % UNCK (Trial 2, 41 DAB, water volume 300 L/ha, rate in treatment name, listed as PA 585 g/ha): 52.86 % UNCK | PESINC (Pest Incidence/Number of Insects) % UNCK (Trial 2, 41 DAB, water volume 300 L/ha, rate in treatment name, listed as PA 975 g/ha): 52.86 % UNCK | PESINC (Pest Incidence/Number of Insects) % UNCK (Trial 2, 41 DAB, water volume 300 L/ha, rate in treatment name, listed as PA 1300 g/ha): 57.86 % UNCK | PESINC (Pest Incidence/Number of Insects) % UNCK (Trial 2, 41 DAB, water volume 300 L/ha, rate in treatment name, listed as PA 2600 g/ha): 67.86 % UNCK

Source: patent publication US20250127162A1, “METHODS AND COMPOSITIONS FOR CONTROLLING PESTS IN RICE” (Globachem NV, priority 2022, published 2025)
